This note sets out measurements from EPA's ToxValDB 9.5 (doi:10.2903/j.efsa.2015.4020).

Series [1] deals with Aphidius rhopalosiphi. Put plainly: LR50; higher = less toxic. The conditions noted are these: not reported; mortality.
Series [2] has as its system Typhlodromus pyri. Put plainly: LR50; higher = less toxic. As to conditions: not reported; mortality.
In series [3] the test system is Pimephales promelas. The conditions noted are these: mortality.
The subject of series [4] is Oryctolagus sp. As to conditions: reproduction developmental; body weight.
In series [5] the test system is Rattus norvegicus. The conditions noted are these: for NOAEL: body weight.
The test system of series [6] is Colinus virginianus.
For series [7], the system named is Tagia sp.
The subject of series [8] is Folsomia candida. As to conditions: chronic/long-term; duration: 28 days.
The subject of series [9] is Neomysis kadiakensis. The conditions noted are these: chronic/long-term; duration: 28 days; mortality.
For series [10], the system named is Apis mellifera. The conditions noted are these: acute, mortality.
The subject of series [11] is Daphnia magna. The conditions noted are these: chronic/long-term; duration: 21 days; reproduction.
Series [12] concerns Hypoaspis aculeifer. As to conditions: chronic/long-term; duration: 28 days.
Series [13] deals with Bibionidae. The conditions noted are these: chronic/long-term; duration: 28 days.

For `O=C1C=C(N(Cc2ccc(Cl)nc2)CC(F)F)CO1` [Flupyradifurone], the LR50 in [1] is under 0.5 g/ha; in [2], 17 g/ha. Also, the LC50 in series [3] (acute, duration: 96 hours) is over 70.5 µg/mL; in [6] (acute, oral, diet, mortality), over 470 mg/kg-day; in series [7] (acute, duration: 14 days, mortality) it was 186 mg/kg. The NOEC was found to be 4.41 mg/L in series [3] (chronic/long-term, duration: 35 days); 1.5 mg/kg in [7] (chronic/long-term, duration: 56 days); 1.44 mg/kg in series [8]; 0.0132 mg/L in series [9]; 3.2 mg/L in series [11]; 170 mg/kg in series [12]. Moreover, the NOEC in series [13] was found to be 0.00681 mg/L. The NOAEL in series [4] was determined as 15 mg/kg-day; in series [5] (chronic), 6.4 mg/kg-day; in [5] (reproduction developmental), 6.4 mg/kg-day; in [6] (reproduction developmental), 14 mg/kg-day. For the same compound, the LD50 in series [5] (acute, mortality) was found to be 1610 mg/kg-day; in series [6] (acute, oral, mortality), 232 mg/kg-day; in [10] (dermal), 123 µg/piece; in series [10] (oral, unspecified), 1.2 µg/piece.
